Results taken from PubChem BioAssay AID2060607 (Molecular Pharmacology Branch, DTP, NCI, 2025).

Tested on: 876862-298-R-J1-PDC complex spheroids, viability % test/control
Assay: Anticancer human tumor 876862-298-R-J1-PDC patient-derived endometrial carcinoma cell line growth inhibition [CLK]
Conditions: for IC50: curve of first compound; for viability, T/C: stronger effect = lower value; active means viability on the fitted dose curve at most 10% of control; inactive means the rest
How it was run: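 Multi-cell-type spheroids combined patient-derived tumor cells with HUVEC endothelial cells and human mesenchymal stem cells. Paired agents were dosed in half-log steps down from about clinical Cmax, or from 10 microM where Cmax was unknown.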

[1] = second compound 0.0316 µM, first compound 0.0316 µM
[2] = second compound 0.0316 µM, first compound 0.1 µM
[3] = second compound 0.1 µM, first compound 0.0316 µM
[4] = second compound 0.1 µM, first compound 0.1 µM
[5] = second compound 0.316 µM, first compound 0.0316 µM
[6] = second compound 0.316 µM, first compound 0.1 µM
[7] = second compound 1 µM, first compound 0.0316 µM
[8] = second compound 1 µM, first compound 0.1 µM
[9] = second compound 3.16 µM, first compound 0.0316 µM
[10] = second compound 3.16 µM, first compound 0.1 µM
[11] = second compound 10 µM, first compound 0.0316 µM
[12] = second compound 10 µM, first compound 0.1 µM
[13] = second compound 0.0316 µM, first compound 0.316 µM
[14] = second compound 0.0316 µM, first compound 1 µM
[15] = second compound 0.0316 µM, first compound 3.16 µM
[16] = second compound 0.0316 µM, first compound 10 µM
[17] = second compound 0.1 µM, first compound 0.316 µM
[18] = second compound 0.1 µM, first compound 1 µM
[19] = second compound 0.1 µM, first compound 3.16 µM
[20] = second compound 0.1 µM, first compound 10 µM
[21] = second compound 0.316 µM, first compound 0.316 µM
[22] = second compound 0.316 µM, first compound 1 µM
[23] = second compound 0.316 µM, first compound 3.16 µM
[24] = second compound 0.316 µM, first compound 10 µM
[25] = second compound 1 µM, first compound 0.316 µM
[26] = second compound 1 µM, first compound 1 µM
[27] = second compound 1 µM, first compound 3.16 µM
[28] = second compound 1 µM, first compound 10 µM
[29] = second compound 3.16 µM, first compound 0.316 µM
[30] = second compound 3.16 µM, first compound 1 µM
[31] = second compound 3.16 µM, first compound 3.16 µM
[32] = second compound 3.16 µM, first compound 10 µM
[33] = second compound 10 µM, first compound 0.316 µM
[34] = second compound 10 µM, first compound 1 µM
[35] = second compound 10 µM, first compound 3.16 µM
[36] = second compound 10 µM, first compound 10 µM
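Further: spheroids exposed to drugs for 7 days before readout.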
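Wherever viability, T/C is given: 100% = DMSO vehicle control wells.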

Cn1ncnc1[C@H]1c2n[nH]c(=O)c3cc(F)cc(c23)N[C@@H]1c1ccc(F)cc1 + CN1CCN(c2cc(C(=O)Nc3cc4cc(-c5cnn(C)c5)ccc4cn3)ccn2)CC1
> 100 nM: IC50 (second compound 0.0316 µM)
active: viability, T/C (second compound 0.316 µM, first compound 0.000316 µM) 2.64% | viability, T/C (second compound 0.316 µM, first compound 0.001 µM) 2.72% | viability, T/C (second compound 0.316 µM, first compound 0.00316 µM) 2.87% | viability, T/C (second compound 0.316 µM, first compound 0.01 µM) 3.16% | viability, T/C [5] 2.95% | viability, T/C [6] 2.25% | viability, T/C (second compound 1 µM, first compound 0.000316 µM) 0.47% | viability, T/C (second compound 1 µM, first compound 0.001 µM) 0.71% | viability, T/C (second compound 1 µM, first compound 0.00316 µM) 1% | viability, T/C (second compound 1 µM, first compound 0.01 µM) 0.8% | viability, T/C [7] 0.52% | viability, T/C [8] 0.74% | viability, T/C (second compound 3.16 µM, first compound 0.000316 µM) 0.96% | viability, T/C (second compound 3.16 µM, first compound 0.001 µM) 0.86% | viability, T/C (second compound 3.16 µM, first compound 0.00316 µM) 0.88% | viability, T/C (second compound 3.16 µM, first compound 0.01 µM) 0.88% | viability, T/C [9] 1.01% | viability, T/C [10] 0.64% | viability, T/C (second compound 10 µM, first compound 0.000316 µM) 0.56% | viability, T/C (second compound 10 µM, first compound 0.001 µM) 0.62% | viability, T/C (second compound 10 µM, first compound 0.00316 µM) 0.88% | viability, T/C (second compound 10 µM, first compound 0.01 µM) 0.76% | viability, T/C [11] 0.63% | viability, T/C [12] 0.56%
inactive: viability, T/C (second compound 0.0316 µM, first compound 0.000316 µM) 94.8% | viability, T/C (second compound 0.0316 µM, first compound 0.001 µM) 81.4% | viability, T/C (second compound 0.0316 µM, first compound 0.00316 µM) 89.7% | viability, T/C (second compound 0.0316 µM, first compound 0.01 µM) 87% | viability, T/C [1] 99.8% | viability, T/C [2] 81.6% | viability, T/C (second compound 0.1 µM, first compound 0.000316 µM) 44.7% | viability, T/C (second compound 0.1 µM, first compound 0.001 µM) 48.4% | viability, T/C (second compound 0.1 µM, first compound 0.00316 µM) 44.7% | viability, T/C (second compound 0.1 µM, first compound 0.01 µM) 48% | viability, T/C [3] 43.2% | viability, T/C [4] 37.9%
< 0.316 nM: IC50 (second compound 0.1 µM) | IC50 (second compound 0.316 µM) | IC50 (second compound 1 µM) | IC50 (second compound 3.16 µM) | IC50 (second compound 10 µM)

Nc1ccn(C2OC(CO)C(O)C2(F)F)c(=O)n1 (stereo unspecified) + CN1CCN(c2cc(C(=O)Nc3cc4cc(-c5cnn(C)c5)ccc4cn3)ccn2)CC1
active: viability, T/C [2] 8.64% | viability, T/C [13] 6.4% | viability, T/C [14] 7.52% | viability, T/C [15] 6.95% | viability, T/C [16] 5.95% | viability, T/C [4] 8.73% | viability, T/C [17] 7.61% | viability, T/C [18] 7.32% | viability, T/C [19] 7.36% | viability, T/C [20] 6.15% | viability, T/C [5] 1.98% | viability, T/C [6] 2.23% | viability, T/C [21] 2.31% | viability, T/C [22] 2.07% | viability, T/C [23] 1.76% | viability, T/C [24] 1.74% | viability, T/C [7] 0.86% | viability, T/C [8] 0.6% | viability, T/C [25] 1.16% | viability, T/C [26] 0.96% | viability, T/C [27] 0.79% | viability, T/C [28] 0.99% | viability, T/C [9] 0.84% | viability, T/C [10] 0.93% | viability, T/C [29] 0.9% | viability, T/C [30] 0.86% | viability, T/C [31] 1.01% | viability, T/C [32] 0.93% | viability, T/C [11] 0.55% | viability, T/C [12] 0.43% | viability, T/C [33] 0.48% | viability, T/C [34] 0.64% | viability, T/C [35] 0.74% | viability, T/C [36] 0.72%
inactive: viability, T/C [1] 22.6% | viability, T/C [3] 13.8%
< 31.6 nM: IC50 (second compound 0.0316 µM) | IC50 (second compound 0.1 µM) | IC50 (second compound 0.316 µM) | IC50 (second compound 1 µM) | IC50 (second compound 3.16 µM) | IC50 (second compound 10 µM)

O=c1[nH]cc(F)c(=O)[nH]1 + CN1CCN(c2cc(C(=O)Nc3cc4cc(-c5cnn(C)c5)ccc4cn3)ccn2)CC1
8770 nM: IC50 (second compound 0.0316 µM)
< 31.6 nM: IC50 (second compound 0.1 µM) | IC50 (second compound 0.316 µM) | IC50 (second compound 1 µM) | IC50 (second compound 3.16 µM) | IC50 (second compound 10 µM)
active: viability, T/C [5] 3.11% | viability, T/C [6] 2.75% | viability, T/C [21] 3.62% | viability, T/C [22] 2.92% | viability, T/C [23] 2.73% | viability, T/C [24] 2.79% | viability, T/C [7] 0.65% | viability, T/C [8] 0.89% | viability, T/C [25] 0.91% | viability, T/C [26] 0.83% | viability, T/C [27] 0.68% | viability, T/C [28] 0.7% | viability, T/C [9] 0.68% | viability, T/C [10] 1.36% | viability, T/C [29] 1.24% | viability, T/C [30] 0.98% | viability, T/C [31] 1.14% | viability, T/C [32] 1.44% | viability, T/C [11] 0.57% | viability, T/C [12] 0.53% | viability, T/C [33] 0.54% | viability, T/C [34] 0.77% | viability, T/C [35] 0.83% | viability, T/C [36] 0.73%
inactive: viability, T/C [1] 94.5% | viability, T/C [2] 89.6% | viability, T/C [13] 88.8% | viability, T/C [14] 83% | viability, T/C [15] 55.9% | viability, T/C [16] 49.4% | viability, T/C [3] 41.8% | viability, T/C [4] 52.2% | viability, T/C [17] 47.8% | viability, T/C [18] 41.9% | viability, T/C [19] 31.5% | viability, T/C [20] 29.9%
